According to ChEMBL document CHEMBL1129028 (J Med Chem, 1996):
One block for each compound: values may come before it.

Assays:
Mus musculus [1] = assay: Anticonvulsant activity in the subcutaneous metrazole (scMet) screen test expressed as the number of animals protected to the number of animals tested; scMet at 100 mg/kg after 0.5 hrs; (1/1); type: functional
Mus musculus [2] = assay: Anticonvulsant activity in the subcutaneous metrazole (scMet) screen test expressed as the number of animals protected to the number of animals tested; scMet at 100 mg/kg after 4 hrs; (0/1); type: functional
Cavia porcellus = species on record: Cavia porcellus; assay: Calcium channel antagonist activity against carbachol-induced contractile response in guinea pig ileal longitudinal smooth muscle; type: functional
[3] = Partition coefficient; Kp = concentration of test compound in n-octanol/concentration of the test compound in phosphate buffer (pH 7.4); type: physicochemical
Mus musculus [4] = assay: Anticonvulsant activity in the maximal electroshock (MES) screen test expressed as the number of animals protected to the number of animals tested; MES at 100 mg/kg after 0.5 hrs; (2/2); type: functional
Mus musculus [5] = assay: Anticonvulsant activity in the maximal electroshock (MES) screen test expressed as the number of animals protected to the number of animals tested; MES at 300 mg/kg after 0.5 hrs; (0/1); type: functional
Mus musculus [6] = assay: Anticonvulsant activity in the subcutaneous metrazole (scMet) screen test expressed as the number of animals protected to the number of animals tested; scMet at 300 mg/kg; (0/1); type: functional
Mus musculus [7] = assay: Anticonvulsant activity in the subcutaneous metrazole (scMet) screen test expressed as the number of animals protected to the number of animals tested; scMet at 100 mg/kg after 0.5 hrs; (0/1); type: functional
Mus musculus [8] = assay: Anticonvulsant activity in the maximal electroshock (MES) screen test expressed as the number of animals protected to the number of animals tested; MES at 300 mg/kg after 4 hrs; (1/1); type: functional
Mus musculus [9] = assay: Anticonvulsant activity in the maximal electroshock (MES) screen test expressed as the number of animals protected to the number of animals tested; MES at 100 mg/kg after 0.5 hrs; (0/3); type: functional
Mus musculus [10] = assay: Anticonvulsant activity in the maximal electroshock (MES) screen test expressed as the number of animals protected to the number of animals tested; MES at 100 mg/kg after 4 hrs; (1/3); type: functional
Mus musculus [11] = assay: Anticonvulsant activity in the maximal electroshock (MES) screen test expressed as the number of animals protected the number of animals tested; MES at 300 mg/kg after 4 hrs; (1/1); type: functional
Mus musculus [12] = assay: Anticonvulsant activity in the maximal electroshock (MES) screen test expressed as the number of animals protected the number of animals tested; MES at 100 mg/kg after 4 hrs; (1/3); type: functional
Mus musculus [13] = assay: Anticonvulsant activity in the maximal electroshock (MES) screen test expressed as the number of animals protected the number of animals tested; MES at 100 mg/kg after 0.5 hrs; (0/3); type: functional
Mus musculus [14] = assay: Anticonvulsant activity in the subcutaneous metrazole (scMet) screen test expressed as the number of animals protected the number of animals tested; scMet at 300 mg/kg after 0.5 hrs; (0/1); type: functional
Mus musculus [15] = assay: Anticonvulsant activity in the subcutaneous metrazole (scMet) screen test expressed as the number of animals protected the number of animals tested; scMet at 300 mg/kg after 4 hrs; (0/1); type: functional
Mus musculus [16] = assay: Anticonvulsant activity in the subcutaneous metrazole (scMet) screen test expressed as the number of animals protected the number of animals tested; scMet at 100 mg/kg after 0.5 hrs; (0/1); type: functional
Mus musculus [17] = assay: Anticonvulsant activity in the subcutaneous metrazole (scMet) screen test expressed as the number of animals protected the number of animals tested; scMet at 100 mg/kg after 4 hrs; (0/1); type: functional
Mus musculus [18] = assay: Anticonvulsant activity in the maximal electroshock (MES) screen test expressed as the number of animals protected the number of animals tested; MES at 300 mg/kg after 0.5 hrs; (0/1); type: functional
Mus musculus [19] = assay: Anticonvulsant activity in the maximal electroshock (MES) screen test expressed as the number of animals protected / the number of animals tested; MES at 100 mg/kg after 0.5 hrs; (2/3); type: functional
Mus musculus [20] = assay: Anticonvulsant activity in the subcutaneous metrazole (scMet) screen test expressed as the number of animals protected/ the number of animals tested; scMet at 300 mg/kg after 0.5 hrs; (0/1); type: functional
Mus musculus [21] = assay: Anticonvulsant activity in the subcutaneous metrazole (scMet) screen test expressed as the number of animals protected / the number of animals tested; scMet at 100 mg/kg after 4 hrs; (0/1); type: functional
Mus musculus [22] = assay: Anticonvulsant activity in the maximal electroshock (MES) screen test expressed as the number of animals protected / the number of animals tested; MES at 300 mg/kg after 0.5 hrs; (1/1); type: functional
Mus musculus [23] = assay: Anticonvulsant activity in the maximal electroshock (MES) screen test expressed as the number of animals protected / the number of animals tested; MES at 100 mg/kg after 4 hrs; (2/3); type: functional
Mus musculus [24] = assay: Anticonvulsant activity in the subcutaneous metrazole (scMet) screen test expressed as the number of animals protected / the number of animals tested; scMet at 100 mg/kg after 0.5 hrs; (0/1); type: functional

IC50 (Cavia porcellus): 30.4 nM | Kp [3]: 236
Compound: CO/C(O)=C1\C(C)=NC(C)=C(C(=O)OCCO)C1c1cccc(Cl)c1Cl (stereo unspecified)
No. of animals protected / no animals tested (Mus musculus [1]): 1 | No. of animals protected / no animals tested (Mus musculus [2]): 0 | No. of animals protected / no animals tested (Mus musculus [4]): 2

IC50 (Cavia porcellus): 14.9 nM | Kp [3]: 187
Compound: COCCOC(=O)C1=C(C)NC(C)=C(C(=O)OC(C)C)C1c1cccc([N+](=O)[O-])c1 (stereo unspecified) [NIMODIPINE]
No. of animals protected / no animals tested (Mus musculus [5]): 0 300mg kg-1 | No. of animals protected / no animals tested (Mus musculus [6]): 0 300mg kg-1 | No. of animals protected / no animals tested (Mus musculus [2]): 0 100mg kg-1 | No. of animals protected / no animals tested (Mus musculus [7]): 0 100mg kg-1 | No. of animals protected / no animals tested (Mus musculus [8]): 1 300mg kg-1 | No. of animals protected / no animals tested (Mus musculus [9]): 0 100mg kg-1 | No. of animals protected / no animals tested (Mus musculus [10]): 1 100mg kg-1

IC50 (Cavia porcellus): 31 nM | Kp [3]: 366
Compound: CO/C(O)=C1\C(C)=NC(C)=C(C(=O)OCCOC(=O)C2=CN(C)C=CC2)C1c1cccc(Cl)c1Cl (stereo unspecified)
No. of animals protected / no animals tested (Mus musculus [11]): 1 | No. of animals protected / no animals tested (Mus musculus [12]): 1 | No. of animals protected / no animals tested (Mus musculus [13]): 0 | No. of animals protected / no animals tested (Mus musculus [14]): 0 | No. of animals protected / no animals tested (Mus musculus [15]): 0 | No. of animals protected / no animals tested (Mus musculus [16]): 0 | No. of animals protected / no animals tested (Mus musculus [17]): 0 | No. of animals protected / no animals tested (Mus musculus [18]): 0

Kp [3]: 442
Compound: CCOC(=O)C1=C(C)NC(C)=C(C(=O)OC)C1c1cccc(Cl)c1Cl (stereo unspecified) [FELODIPINE]
No. of animals protected / no animals tested (Mus musculus [19]): 2 | No. of animals protected / no animals tested (Mus musculus [20]): 0 | No. of animals protected / no animals tested (Mus musculus [21]): 0 | No. of animals protected / no animals tested (Mus musculus [22]): 1 | No. of animals protected / no animals tested (Mus musculus [23]): 2 | No. of animals protected / no animals tested (Mus musculus [24]): 0
